Results published in ChEMBL document CHEMBL3351910, “Two new antioxidant actinosporin analogues from the calcium alginate beads culture of sponge-associated Actinokineospora sp. strain EG49” (Bioorg Med Chem Lett, 2014).
Activity calls are given as the source filed them. No cut-off for these calls is given here.

Columns and labels:
[1] = system: Trypanosoma brucei brucei; assay: Antiparasitic activity against Trypanosoma brucei brucei; type: functional, organism-based
[2] = Antioxidant activity assessed as ferric ion reducing activity at 2 nM to 200 uM by FRAP assay; type: physicochemical; conditions: 0.002 µM
[3] = Cytotoxicity against human HL60 cells assessed as cell viability up to 50 uM after 4 hrs by fluorescence microscopy; type: cell-based; conditions: hl-60, 4 h
[4] = Cytotoxicity against human HL60 cells assessed as cell viability up to 50 uM after 24 hrs by fluorescence microscopy; type: cell-based; conditions: hl-60, 24 h
HL-60 [5] = assay: Protection against H2O2-induced human HL60 cells assessed as reduction in DNA damage at 10 uM after 30 mins by comet assay; type: functional, cell-based
HL-60 [6] = assay: Protection against H2O2-induced human HL60 cells assessed as reduction in DNA damage at 2.5 uM after 30 mins by comet assay; type: functional, cell-based
HL-60 [7] = assay: Protection against H2O2-induced human HL60 cells assessed as reduction in DNA damage at 1.25 uM after 30 mins by comet assay; type: functional, cell-based
[8] = Cytotoxicity against human HL60 cells assessed as induction of DNA damage at 1.25 to 10 uM after 24 hrs by fluorescence microscopy; type: cell-based; conditions: hl-60, 24 h
HL-60 [9] = assay: Protection against H2O2-induced human HL60 cells assessed as reduction in DNA damage at 50 uM after 30 mins by comet assay; type: functional, cell-based

Cc1cc(O[C@@H]2O[C@@H](C)[C@H](O)[C@@H](O)[C@H]2O)c2c3c(ccc2c1)C(=O)c1c(O[C@@H]2O[C@@H](C)[C@H](O)[C@@H](O)[C@H]2O)cccc1C3=O
inhibition [1]: inactive
Activity [2]: Active
Activity [3]: Non-toxic
Activity [4]: Non-toxic
Activity (HL-60 [5]): Active
Activity (HL-60 [6]): Active
Activity (HL-60 [7]): Active
Activity [8]: Non-toxic

CC1(C)CC(O)CC(C)(C)N1[O]
Activity (HL-60 [9]): Active

Cc1cc(O[C@@H]2O[C@@H](C)[C@H](O)[C@@H](O)[C@H]2O)c2c3c(c(O)cc2c1)C(=O)c1c(O[C@@H]2O[C@@H](C)[C@H](O)[C@@H](O)[C@H]2O)cccc1C3=O
inhibition [1]: inactive
Activity [2]: Active
Activity [3]: Non-toxic
Activity [4]: Toxic
Activity (HL-60 [5]): Active
Activity (HL-60 [6]): Active
Activity (HL-60 [7]): Active
Activity [8]: Non-toxic

Cc1cc(O[C@@H]2O[C@@H](C)[C@H](O)[C@@H](O)[C@H]2O)c2c3c(c(O[C@@H]4O[C@@H](C)[C@H](O)[C@@H](O)[C@H]4O)cc2c1)C(=O)c1c(O)cccc1C3=O
IC50 [1]: 15 µM
